Patent publication US20050215635A1, “Diarylheptanoid compounds and uses thereof” (priority 2004, published 2005)
Entries after “also recorded” stand apart in the source; their conditions may differ.

Key:
[1] = test system: Du-145 prostate tumor cells; test: MTT-microculture tetrazolium cell viability assay / induction of apoptosis in Du-145; format: cell-based
Procedure: The rhizomes of Alpinia officinarum were purchased from Nuherbs Co. (Oakland, Calif.). Du-145 prostate tumor cells were obtained from the American Type Culture Collection (ATCC). Cells were maintained at 37° C. in an atmosphere of 5% CO2 and grown in Roswell Park Memorial Institute (RPMI) media 1640 (GIBCO/BRL) with 10% fetal bovine serum and with 5% penicillin and streptomycin.
The powdered roots of Alpinia officinarum were extracted with methanol and concentrated under vacuum using rotary evaporation. The dried residue was then partitioned with hexanes, ethyl acetate and 1-butanol successively. The three extracts were subjected to bioassays.
The dried ethyl acetate extract was then chromatographed on a normal phase silica gel column (2.5×30 cm) to perform bioassay-directed fractionation. The extract was first dissolved in methanol and loaded onto the column packing material. The prepared extract was then placed on top of the column and elution was performed using a solvent mixture of chloroform/methanol with an increasing amount of methanol (30:1, 20:1, 10:1, 5:1, 0:100; each 1000 mL). Successive fractions were collected and tested for biological activity. […] This fraction was then rechromatographed on a semipreparative Zorbax Rx-C18 reversed phase HPLC column (9.4 mm×240 mm, 5 μm) purchased from MacMod Analytical (Chadds Ford, Pa.). Compounds were eluted by an isocratic solvent system: 55% A, water with 0.05% formic acid (FA); 45% B, ACN (v/v) at a flow rate of 4 mL/min. The wavelength monitored was 205 nm. Successive fractions (1-3) were collected and sent for biological testing again.
Cellular growth in the presence or absence of experimental agents was determined using the modified method as previously described MTT-microculture tetrazolium assay (World Health Organization (ED.), Medicinal Plants in China, WHO Regional Publications, 1989, 21). Briefly, rapidly growing cells were harvested, counted, and inoculated at the appropriate concentrations (100 μL volume) into 96-well micro-titer plates using a multichannel pipet. After 24 hours, AO-1 to AO-5 were applied in different concentrations to triplicate culture wells, and cultures were incubated for 72 hours at 37° C. MTT ( Sigma, St. Louis, Mo.) was prepared at 2 mg/ml in Phosphate buffered saline (PBS) and 50 μL were added to microculture wells. After 4 hour incubation at 37° C., […] were removed from each well, and 150 μL of 100% DMSO were added to solubilize the MTT-formazan product. After thorough mixing with a mechanical plate mixer, absorbence was measured at 570 nm using a Dynatech microplate reader. […] This assay is based on the reduction of MTT tetrazolium salt to a formazan product by the metabolic activity of live cells and which was measured in a multiwell scanning spectrophotometer. Cell line growth and growth inhibition were expressed in terms of mean absorbance units and following the substraction of mean background absorbance.

p38 MAPK phosphorylation = test: Western blotting of LPS induced phosphorylation of p38 MAPK in RAW 264.7 cells; format: cell-based, mouse; conditions: HMP 25 μM + LPS (0.5 μg/ml), RAW 264.7, 30 min and 60 min
Procedure: FIG. 5A and 5B. Effect of HMP on LPS induced MAPKs activation. FIG. 5A, Total protein lysates of RAW 264.7 were prepared after treatment with HMP and/or LPS for indicated times and 40 μg of protein lysates were resolved and probed for phosphorylated (pp44/42 and pp38) and basal p44/42 and p38, using specific monoclonal antibodies as described in material and methods. FIG. 5B, Integrated density of phosphorylated p44/42 (pp44/42) as measured by Scion software. This experiment was repeated 4 times with similar results.
At indicated time points, cells were rapidly washed with ice-cold PBS and solubilized in cold lysis buffer containing 10 mM Tris-base, 5 mM EDTA, 50 mM NaCl, 1% Triton X-100, 5 mM phenylmethylsulfonyl fluoride (PMSF), 2 mM sodium orthovanadate, 10 μg/ml leupeptin, 25 μg/ml aprotinin, 1 mM sodium pyrophosphate, and 20% glycerol. […]
Equal amount of protein (40 μg) from each sample was loaded on SDS-polyacrylamide electrophoresis gel (8 and 10% separating gels for iNOS and p42/44^MAPK, respectively) and resolved for 1.5 h at 120 V in buffer containing 95 mM Tris-HCl, 960 mM glycine, and 0.5% SDS. […] Specific bands were detected by enhanced chemiluminescence's detection system (Amersham-Pharmacia biotech, NJ, USA) and the membrane was exposed to X-ray film. […]

## COc1cc(CC/C=C/C(=O)CCc2ccccc2)ccc1O [AO-4, 7-(4″-hydroxy-3″-methoxyphenyl)-1-phenyl-hept-4-en-3-one]
[1]; Homo sapiens, Du-145 prostate tumor cells, MTT, 72 hours incubation, drug concentration giving 50% inhibition of growth, read-out: IC50 (μM), Effects of Diarylheptanoids on Inducing Apoptosis in DU-145 Cancer Cell Line
  IC50: 12.5 µM
[1]; bioassay-directed fractionation of Alpinia officinarum
  activity in bioassay: inducing apoptosis in Du-145 cancer cell line (in words): some activity; also recorded: most potent
p38 MAPK phosphorylation
  LPS induced phosphorylation of p38 (in words): no effect
